Among the data in PMC3224194 (European journal of pharmacology, 2011) are Ki values, retold here.

Each structure is given as a SMILES string. Positions count from the first letter of the chain named.

Holding throughout (test): competition with [3H]-mesulergine, HEK membranes
Common to all, as to type: binding

Assay [1] concerns the target T1, human 5-HT2C-INI (WT) receptor (Homo sapiens, UniProt P28335, Y358A).
T1 sequence (P28335 33-458 Y358A): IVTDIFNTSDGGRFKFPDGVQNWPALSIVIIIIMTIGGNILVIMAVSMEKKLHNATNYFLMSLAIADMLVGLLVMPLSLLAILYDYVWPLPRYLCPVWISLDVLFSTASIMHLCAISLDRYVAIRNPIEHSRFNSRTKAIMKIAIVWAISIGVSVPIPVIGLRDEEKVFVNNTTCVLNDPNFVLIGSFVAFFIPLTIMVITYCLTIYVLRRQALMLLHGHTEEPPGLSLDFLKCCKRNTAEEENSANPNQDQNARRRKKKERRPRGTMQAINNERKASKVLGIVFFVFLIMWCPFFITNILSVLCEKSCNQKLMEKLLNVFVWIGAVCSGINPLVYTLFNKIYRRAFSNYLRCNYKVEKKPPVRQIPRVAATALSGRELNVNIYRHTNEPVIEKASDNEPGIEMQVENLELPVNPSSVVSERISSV

For assay [2], the target named is T2, human 5-HT2C-INI (WT) receptor (Homo sapiens, UniProt P28335, S138A).
T2 sequence (P28335 33-458 S138A): T1 sequence (P28335 33-458 Y358A) with S106A, A326Y

The target in assay [3] is T3, human 5-HT2C-INI (WT) receptor (Homo sapiens, UniProt P28335).
T3 sequence (P28335 33-458): T1 sequence (P28335 33-458 Y358A) with A326Y

As for `NC1Cc2ccccc2C(c2ccccc2)C1` (racemic) [NH2-PAT], the values for the Ki in assay [1], in assay [2] and in assay [3] were 1.35 µM, 9.04 µM and 1.55 µM, respectively.
For the compound `NCCc1c[nH]c2ccccc12` [Tryptamine], the figures for the Ki in assay [1], in assay [2] and in assay [3] were 0.298 µM, 1.51 µM and 0.0571 µM, respectively.

By Ki is commonly meant the equilibrium dissociation constant of an inhibitor or competing ligand from its target. Read a low Ki as tighter binding.
